From patent US20130196999A1, “METHODS OF CONTROLLING NEONICOTINOID RESISTANT APHIDS” (SYNGENTA CROP PROTECTION LLC, priority 2010, published 2013)

What was measured:
[1] = test system: neonicotinoid insecticide resistant aphid strain; test: Leaf disc spray bioassay, aphid mortality, resistant strain; type: in vivo, aphids; conditions: for LC50 with 95% confidence limit, resistant strain: mixed age aphids on chinese cabbage leaf discs, Potter Tower spray, mortality 72 hours after treatment, strain collected from peach orchard, Avignon region, 2009
Description: (§1) The following bioassay methodology was utilized to generate the data included in the table:
(§2) 5 cm leaf discs were taken from fully expanded chinese cabbage leaves and placed with the underside facing upwards onto water agar in 5 cm Petri dishes. The leaf discs are infested with between 30 and 40 mixed age aphids 24 hours prior to insecticide treatment. The leaf surface is sprayed with the appropriate test solutions in a Burkhard Potter Tower at an approximate water volume of […]. Test containers are stored at 21° C., 60% RH and 16:8 light/dark. Aphids were assessed for mortality 72 hours after treatment.

[2] = test system: neonicotinoid insecticide susceptible strain 4106A; test: Leaf disc spray bioassay, aphid mortality, susceptible strain; type: in vivo; conditions: mixed age aphids on chinese cabbage leaf discs, Potter Tower spray, mortality 72 hours after treatment; strain 4106A from Rothamsted Research
Description: as §1, §2

| Structure (SMILES) | LC50 with 95% confidence limit, resistant strain [1] | cross-resistance with neonicotinoid insecticides ([1]; neonicotinoid resistant populations of aphids) | LC50 with 95% confidence limit, susceptible strain [2] |
| --- | --- | --- | --- |
| CC1=NNC(=O)N(N=Cc2cccnc2)C1 [pymetrozine, 4,5-dihydro-6-methyl-4-(3-pyridylmethyleneamino)-1,2,4-triazin-3(2H)-one] | 3.07 (0.97-6.59) ppm | no cross-resistance | 0.52 (0.4-0.66) ppm |
| CN1COCN(Cc2cnc(Cl)s2)/C1=N\[N+](=O)[O-] [thiamethoxam, reference compound] | 148 (128-172) ppm | – | 0.35 (0.3-0.41) ppm |
